From publication PMC10945480 (Journal of Medicinal Chemistry, 2024)

What was measured:
[1] = tested on: washed human platelets coincubated with A549, MDA-MB-231, or RPMI8226 cancer cells; test: Tumor cell-induced platelet aggregation (TCIPA); assay type: cell-based; conditions: anti-TF antibody 20 μg/mL, hirudin 0.01 μM, aspirin 100 μM, ticagrelor 1 μM
[2] = tested on: washed human platelets coincubated with A549 cancer cells; test: Tumor cell-induced platelet secretion (PDGF, ATP); assay type: cell-based
Description: (a) Washed human platelets were coincubated with A549 cancer cells under the same conditions as described in Figure 4. Secretion of PDGF and ATP were determined with the enzyme-linked immunosorbent assay (ELISA) and bioluminescent assay, respectively. (b) A549 cancer cells were coincubated with washed human platelets at 37 °C and 5% CO2 in a cell culture incubator for 48 h. After washing with PBS, the numbers of viable cancer cells were determined by trypan blue exclusion. Data are mean ± SEM of at least three independent experiments.
Washed human platelets were coincubated with cancer cells under the same conditions as described in the TCIPA assay. After a 25 min incubation in the aggregometer, the samples were centrifuged at 13,000g for 1 min. The concentrations of PDGF-BB and ATP in the supernatants were determined using an ELISA kit (Abcam, Cambridge, UK) and an ATP bioluminescent assay kit (Sigma, MO, USA), respectively.[52]

washed human platelets [3] = test: U46619-induced platelet aggregation; assay type: cell-based; conditions: Platelet; washed human platelets, U46619 (1 μM)
Description: (§1) The antiplatelet effects of the JUG derivatives were evaluated by measuring human platelet aggregation, which can be regulated by cell surface PDI. Platelet aggregation was induced with platelet activators U46619 (a mimetic of thromboxane A2) and collagen (binding to GPVI).
(§2) Washed human platelets were prepared from acid citrate dextrose-anticoagulated blood of healthy human volunteers as described previously.[73] The study was approved by the Institutional Review Board of Kaohsiung Medical University, and informed consent was obtained from every volunteer. Platelet aggregation was measured by using a turbidimetric aggregometer (Chrono-Log Co., USA) under stirring conditions (1200 rpm) at 37 °C. The extent of platelet aggregation was measured as the maximal increase of light transmission after the addition of the stimulators U46619 and collagen.[73] In the TCIPA assay, platelet aggregation was induced by A549 (1 × 10^4 cells/mL), MDA-MB-231 (1 × 10^2 cells/mL), or RPMI8226 (1 × 10^5 cells/mL) cancer cells in the presence of 0.375% plasma.[74]

washed human platelets [4] = test: Collagen-induced platelet aggregation; assay type: cell-based; conditions: Platelet; washed human platelets, collagen (5 μg/mL)
Description: as §1, §2

[5] = Parallel artificial membrane permeability assay (PAMPA); conditions: 50 μM, 3 h
Description: 1. Parallel artificial membrane permeability assay (PAMPA). […]
evolution instruments from pION Inc. In the PAMPA assay, a set of sandwich plates consists of a 96-well microtiter donor plate at the bottom and a 96-well filter acceptor plate on the top from […]
The stock solutions of samples were prepared at 10 mM concentrations in DMSO and stored at 0 ℃ before use. Before being added to a 96-well filter plate, the stock solution was diluted first with buffer to achieve a final sample concentration of 50 μM and to reduce the DMSO concentration below 1% (v/v). Each well of the 96-well donor plate was filled with a 200 μL diluted sample solution (50 μM), and the 96-well filter acceptor plate was then wetted with a 5 μL 2% w/v dioleyoylphosphatidylcholine (DOPC) in n-dodecane and subsequently placed on the donor wells.
Immediately, the acceptor wells were filled with 200 μL of buffer solution and the PAMPA plate sandwich was sealed and incubated at 25 ℃ for 3 h. After reaching the permeation time, the PAMPA plate sandwich was separated and transferred to 96-well UV plates respectively. The amounts of drugs in both the donor and acceptor compartments were measured by comparing the experimental spectra with the UV spectrum (220∼400 nm) obtained from reference standards.

glioma U87 = test: Cell viability, resazurin assay, U87; conditions: Homo sapiens, 24 h, read-out: U87 IC50
Description: (§3) Cells were maintained in a humidified incubator at 37 °C in 5% CO2, and cell viability was determined with the resazurin assay (Cayman Chemical, USA) after the incubation with compounds for indicated concentrations and times or DMSO as control.[72]

lung cancer A549 = test: Cell viability, resazurin assay, A549; conditions: Homo sapiens, A549, 24 h, read-out: A549 IC50
Description: as §3

[6] = tested on: multiple myeloma RPMI8226; test: Cell viability, resazurin assay, RPMI8226; conditions: for S.I. (EAhy926/RPMI8226), selectivity index: 24 h IC50 ratio; for IC50: Homo sapiens, RPMI-8226, 24 h, read-out: RPMI8226 IC50
Description: as §3

[7] = tested on: human vascular endothelial EA.hy926 cells; test: Cell viability, resazurin assay, EA.hy926; conditions: EA.hy 926, 24 h, read-out: EAhy926 IC50
Description: as §3

breast cancer MDA-MB-231 = test: Cell viability, resazurin assay, MDA-MB-231; conditions: Homo sapiens, MDA-MB-231, 24 h, read-out: MDA-MB-231 IC50
Description: as §3

[8] = target: purified human recombinant PDI (rPDI) (Homo sapiens, UniProt P07237); test: Recombinant PDI reductase activity (Di-E-GSSG assay); conditions: read-out: rPDI IC50; human recombinant PDI, Di-E-GSSG, 5 μM DTT
Chain of purified human recombinant PDI (rPDI) (P07237 18-508): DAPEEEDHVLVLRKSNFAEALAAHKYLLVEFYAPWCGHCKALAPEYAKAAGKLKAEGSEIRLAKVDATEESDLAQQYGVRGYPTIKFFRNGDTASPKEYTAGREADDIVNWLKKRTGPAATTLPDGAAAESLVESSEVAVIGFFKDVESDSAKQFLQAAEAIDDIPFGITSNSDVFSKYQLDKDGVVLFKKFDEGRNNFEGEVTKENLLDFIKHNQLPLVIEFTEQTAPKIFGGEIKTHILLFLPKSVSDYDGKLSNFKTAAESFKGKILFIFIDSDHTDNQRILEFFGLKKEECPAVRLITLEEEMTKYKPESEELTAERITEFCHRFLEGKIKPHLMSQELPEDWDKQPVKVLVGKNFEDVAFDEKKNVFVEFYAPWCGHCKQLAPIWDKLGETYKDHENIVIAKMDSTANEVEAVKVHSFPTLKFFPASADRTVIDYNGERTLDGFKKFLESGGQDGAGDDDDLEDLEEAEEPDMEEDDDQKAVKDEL
Description: (§4) In this assay, a nonfluorescent substrate, dieosin glutathione disulfide (Di-E-GSSG), was reduced into a fluorescent product eosin-glutathione (E-GSH) by platelet surface PDI in the presence of 5 μM dithiothreitol (DTT).

platelet surface PDI = platelet surface PDI (Homo sapiens, UniProt P07237); test: Cell surface PDI reductase activity on intact human platelets (Di-E-GSSG assay); conditions: read-out: Surface PDI IC50; intact human platelets, Di-E-GSSG, 5 μM DTT
Chain of platelet surface PDI (P07237 18-508): as above
Description: as §4

[9] = UPLC-MS analysis of compound metabolites in water with or without GSH; assay type: physicochemical; conditions: 37 °C, 30 min
Description: GSH is the major cellular nonprotein thiol, which exists within cells at millimolar concentrations (1–8 mM) while is present extracellularly at only a few micromolar.[53] The high concentrations of intracellular GSH thus may compete with the binding of PDI to covalent PDI inhibitors.[54] […] In this assay, the noncovalent PDI inhibitor isoquercetin was used as a negative control.
Compounds (400 μM) were incubated in water (250 μL) with or without GSH (4 mM) at 37 °C for 30 min. The compound mixture was diluted with methanol (250 μL) and used for UPLC-MS analysis Metabolite analysis was performed on an ACQUITY UPLC I-Class/SQ Detector 2 (Waters, Milford, USA). The reverse phase BEH C18 column (100 mm × 2.1 mm, 1.7 μm, Waters) and VanGuard BEH C18 guard column (5 mm × 2.1 mm, 1.7 μm, Waters) were used. All data were acquired by Empower 3. The mobile phase for LC separation was Millipore water (A) and acetonitrile (B), and the program was as follows: 0.00 min 90% A → 0.50 min 90% A → 6.50 min 5% A → 8.50 min 5% A → 8.60 min 90% A → 9.00 min 90% A; at a rate of 0.4 mL/min for 9.00 min with 5 μL per injection. The temperature of the column oven was maintained at 40 °C. Mass spectrometer parameters were set as follows: cone voltage, 40.0 V, for positive/negative ion mode; desolvation temperature, 200 °C; cone gas flow(N2), 1 L/h; and desolvation gas flow (N2), 650 L/h.

[10] = 25 ℃, verapamil = 100%, ranitidine = 0%

Row | Molecule | effect of comparators on TCIPA [1] | tumor cell-induced increase in extracellular PDGF and ATP (platelet secretion) [2] | IC50 (washed human platelets [3]) [µM] | IC50 (washed human platelets [4]) [µM] | Permeability (%) [5, 10] [%] | IC50 (glioma U87) [µM] | IC50 (lung cancer A549) [µM] | S.I. (EAhy926/RPMI8226), selectivity index [6] | IC50 [6] [µM] | IC50 [7] [µM] | IC50 (breast cancer MDA-MB-231) [µM] | IC50 [8] [µM] | IC50 (platelet surface PDI) [µM] | Permeability (%) [5] [%] | stability in aqueous conditions (UPLC-MS) ([9]; 400 μM in water) | GSH adduct formation after GSH treatment (UPLC-MS) ([9]; 400 μM, GSH 4 mM)
1 | CCCSc1nc(N[C@@H]2C[C@H]2c2ccc(F)c(F)c2)c2nnn([C@@H]3C[C@H](OCCO)[C@@H](O)[C@H]3O)c2n1 [ticagrelor, reference compound] | no or little effect | not |  |  |  |  |  |  |  |  |  |  |  |  |  | 
2 | hirudin | able to prevent the TCIPA |  |  |  |  |  |  |  |  |  |  |  |  |  |  | 
3 | O=C1C=C(c2ccc(O)cc2O)C(=O)c2c(O)cccc21 [Compound 29, 2-(2,4-Dihydroxyphenyl)-8-hydroxynaphthalene-1,4-dione] |  |  | 4.61 ± 1.1 | 7.04 ± 1.71 | 42.95 | 5.13 ± 0.29 | 7.59 ± 0.16 | 1.4 | 3.88 ± 0.23 | 5.49 ± 0.09 | 13.1 ± 1.59 | 0.77 ± 0.2 | 0.53 ± 0.11 |  |  | 
4 | Cc1ccc(SC2=CC(=O)c3cccc(O)c3C2=O)cc1 [Compound 12, 2-(p-Tolylthio)-8-hydroxynaphthalene-1,4-dione] |  |  | 1.82 ± 0.17 | 0.76 ± 0.02 |  | > 20 | > 100 | >5.2 | 3.83 ± 0.28 | > 20 | 25.2 ± 2.58 | 3.45 ± 0.18 | 1.84 ± 0.05 | 0.1 |  | 
5 | COc1ccc(SC2=C(c3ccc(O)cc3O)C(=O)c3c(O)cccc3C2=O)cc1 [Compound 30, 2-(2,4-Dihydroxyphenyl)-3-((4-methoxyphenyl)thio)-8-hydroxynaphthalene-1,4-dione] |  |  | 1.37 ± 0.03 | 5.19 ± 1.22 | 12.64 | 11.2 ± 1.01 | 17.55 ± 0.06 | 1.9 | 5.89 ± 0.32 | 11 ± 0.33 | 16 ± 1.35 | 2.27 ± 0.8 | 0.47 ± 0.05 |  | remained intact in aqueous conditions | only a small amount
6 | CC(C)(C)c1ccc(CSC2=CC(=O)c3cccc(O)c3C2=O)cc1 [Compound 20, 2-((4-(tert-Butyl)benzyl)thio)-8-hydroxynaphthalene-1,4-dione] |  |  | 6.32 ± 0.3 | 2.92 ± 0.77 | 17.1 | > 20 | > 50 | >4.6 | 4.33 ± 0.34 | > 20 | > 20 | 2.01 ± 0.55 | 1.2 ± 0.31 |  |  | 
7 | COc1ccc(SC2=CC(=O)c3cccc(O)c3C2=O)cc1 [Compound 8, 2-((4-Methoxyphenyl)thio)-8-hydroxynaphthalene-1,4-dione] |  |  | 1.52 ± 0.08 | 0.29 ± 0.06 | 80.43 | 16.8 ± 0.62 | 14.9 ± 0.43 | 3.0 | 4.7 ± 0.08 | 13.9 ± 1.17 | 6.63 ± 0.93 | 1.44 ± 0.08 | 1.37 ± 0.23 |  |  | 
8 | COc1ccc(SC2=CC(=O)c3cccc(O)c3C2=O)cc1OC [Compound 11, 2-((3,4-Dimethoxyphenyl)thio)-8-hydroxynaphthalene-1,4-dione] |  |  | 2.43 ± 0.3 | 1.58 ± 0.88 | 2.7 | > 20 | 12.4 ± 1.56 | >8.8 | 2.26 ± 0.07 | > 20 | 38.9 ± 4.89 | 14 ± 1.67 | 1.28 ± 0.29 |  |  | 
